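Following 48 hours of exposure in 96-well plates, responses at five concentrations were used to interpolate endpoints linearly. GI50 = concentration required for 50% inhibition of growth.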 Active and inactive are the calls of the source. Rule as the data show it: active = GI50 up to about 1.1 µM and inactive = higher.
Key:
Test in all cases: inhibition of tumour cell growth, NCI panel, 48 h
786-0 = system: 786-0
A498 = system: A498
A549 = system: A549
ACHN = system: ACHN
BT-549 = system: BT-549
CAKI-1 = system: CAKI-1
COLO 205 = system: COLO 205
DU-145 = system: DU-145
EKVX = system: EKVX
HCC 2998 = system: HCC 2998
HCT-116 = system: HCT-116
HCT-15 = system: HCT-15
HOP-62 = system: HOP-62
HOP-92 = system: HOP-92
HT-29 = system: HT-29
Hs-578T = system: Hs-578T
IGROV-1 = system: IGROV-1
K562 = system: K562
KM12 = system: KM12
LOX IMVI = system: LOX IMVI
M14 = system: M14
MCF7 = system: MCF7
MDA-MB-231 = system: MDA-MB-231
MDA-MB-435 = system: MDA-MB-435
MDA-N = system: MDA-N
Malme-3M = system: Malme-3M
NCI-H226 = system: NCI-H226
NCI-H23 = system: NCI-H23
NCI-H460 = system: NCI-H460
NCI-H522 = system: NCI-H522
NCI/ADR-RES = system: NCI/ADR-RES
OVCAR-3 = system: OVCAR-3
OVCAR-4 = system: OVCAR-4
OVCAR-5 = system: OVCAR-5
OVCAR-8 = system: OVCAR-8
PC-3 = system: PC-3
RPMI-8226 = system: RPMI-8226
RXF 393 = system: RXF 393
SF-268 = system: SF-268
SF-295 = system: SF-295
SF-539 = system: SF-539
SK-MEL-28 = system: SK-MEL-28
SK-MEL-2 = system: SK-MEL-2
SK-MEL-5 = system: SK-MEL-5
SK-OV-3 = system: SK-OV-3
SN12C = system: SN12C
SNB-19 = system: SNB-19
SNB-75 = system: SNB-75
SR = system: SR
SW-620 = system: SW-620
TK-10 = system: TK-10
U-251 = system: U-251
UACC-257 = system: UACC-257
UACC-62 = system: UACC-62
UO-31 = system: UO-31
HL-60 = system: HL-60
MOLT-4 = system: MOLT-4

In the case of Cn1ccnc1CC(C)(O)c1ccccc1 (stereo unspecified), the GI50 (786-0) is reported as > 100 µM (inactive), the GI50 (A498) is reported as > 100 µM (inactive) and the GI50 (A549) is reported as > 100 µM (inactive). The GI50 (ACHN) was > 100 µM (inactive), the GI50 (BT-549) was > 100 µM (inactive) and the GI50 (CAKI-1) was > 100 µM (inactive). For the same molecule, the GI50 (COLO 205) was > 100 µM (inactive), the GI50 (DU-145) was > 100 µM (inactive) and the GI50 (EKVX) was > 100 µM (inactive). The GI50 (HCC 2998) was > 100 µM (inactive), the GI50 (HCT-116) was > 100 µM (inactive) and the GI50 (HCT-15) was greater than 100 µM. The GI50 (HOP-62) was > 100 µM (inactive), the GI50 (HOP-92) was > 100 µM (inactive) and the GI50 (HT-29) was > 100 µM (inactive). For the same molecule, the GI50 (Hs-578T) was > 100 µM (inactive), the GI50 (IGROV-1) was > 100 µM (inactive) and the GI50 (K562) was > 100 µM (inactive). The GI50 (KM12) was > 100 µM (inactive), the GI50 (LOX IMVI) was > 100 µM (inactive) and the GI50 (M14) was > 100 µM (inactive). The GI50 (MCF7) was > 100 µM (inactive), the GI50 (MDA-MB-231) was > 100 µM (inactive) and the GI50 (MDA-MB-435) was > 100 µM (inactive). For the same molecule, the GI50 (MDA-N) was > 100 µM (inactive), the GI50 (Malme-3M) was > 100 µM (inactive) and the GI50 (NCI-H226) was > 100 µM (inactive). For the same molecule, the GI50 (NCI-H23) was > 100 µM (inactive), the GI50 (NCI-H460) was > 100 µM (inactive) and the GI50 (NCI-H522) was > 100 µM (inactive). For the same molecule, the GI50 (NCI/ADR-RES) was > 100 µM (inactive), the GI50 (OVCAR-3) was > 100 µM (inactive) and the GI50 (OVCAR-4) was > 100 µM (inactive). The GI50 (OVCAR-5) was > 100 µM (inactive), the GI50 (OVCAR-8) was > 100 µM (inactive) and the GI50 (PC-3) was > 100 µM (inactive). The GI50 (RPMI-8226) was > 100 µM (inactive), the GI50 (RXF 393) was > 100 µM (inactive) and the GI50 (SF-268) was > 100 µM (inactive). The GI50 (SF-295) was > 100 µM (inactive), the GI50 (SF-539) was > 100 µM (inactive) and the GI50 (SK-MEL-28) was > 100 µM (inactive). The GI50 (SK-MEL-2) was > 100 µM (inactive), the GI50 (SK-MEL-5) was > 100 µM (inactive) and the GI50 (SK-OV-3) was > 100 µM (inactive). The GI50 (SN12C) was > 100 µM (inactive), the GI50 (SNB-19) was > 100 µM (inactive) and the GI50 (SNB-75) was > 100 µM (inactive). For the same molecule, the GI50 (SR) was > 100 µM (inactive), the GI50 (SW-620) was > 100 µM (inactive) and the GI50 (TK-10) was > 100 µM (inactive). For the same molecule, the GI50 (U-251) was > 100 µM (inactive), the GI50 (UACC-257) was > 100 µM (inactive) and the GI50 (UACC-62) was > 100 µM (inactive). For the same molecule, the GI50 (UO-31) was > 100 µM (inactive).
For O=C1CN(c2ccccc2)C(=O)CN1CCN1CC(=O)N(c2ccccc2)CC1=O, the GI50 (786-0) was > 100 µM (inactive), the GI50 (A498) was > 100 µM (inactive) and the GI50 (A549) was > 100 µM (inactive). For the same molecule, the GI50 (ACHN) was > 100 µM (inactive), the GI50 (BT-549) was > 100 µM (inactive) and the GI50 (CAKI-1) was > 100 µM (inactive). For the same molecule, the GI50 (COLO 205) was > 100 µM (inactive), the GI50 (DU-145) was > 100 µM (inactive) and the GI50 (EKVX) was > 100 µM (inactive). For the same molecule, the GI50 (HCC 2998) was > 100 µM (inactive), the GI50 (HCT-116) was > 100 µM (inactive) and the GI50 (HCT-15) was greater than 100 µM. The GI50 (HL-60) was > 100 µM (inactive), the GI50 (HOP-62) was > 100 µM (inactive) and the GI50 (HOP-92) was > 100 µM (inactive). The GI50 (HT-29) was > 100 µM (inactive), the GI50 (Hs-578T) was > 100 µM (inactive) and the GI50 (IGROV-1) was > 100 µM (inactive). For the same molecule, the GI50 (KM12) was > 100 µM (inactive), the GI50 (M14) was > 100 µM (inactive) and the GI50 (MCF7) was > 100 µM (inactive). The GI50 (MDA-MB-435) was > 100 µM (inactive), the GI50 (MDA-N) was > 100 µM (inactive) and the GI50 (MOLT-4) was > 10 µM (inactive). For the same molecule, the GI50 (Malme-3M) was > 100 µM (inactive), the GI50 (NCI-H23) was > 100 µM (inactive) and the GI50 (NCI-H460) was > 100 µM (inactive). For the same molecule, the GI50 (NCI-H522) was > 100 µM (inactive), the GI50 (OVCAR-3) was > 100 µM (inactive) and the GI50 (OVCAR-4) was > 100 µM (inactive). For the same molecule, the GI50 (OVCAR-5) was > 100 µM (inactive), the GI50 (OVCAR-8) was > 100 µM (inactive) and the GI50 (PC-3) was > 100 µM (inactive). The GI50 (RPMI-8226) was > 100 µM (inactive), the GI50 (RXF 393) was > 100 µM (inactive) and the GI50 (SF-268) was > 100 µM (inactive). The GI50 (SF-295) was > 100 µM (inactive), the GI50 (SF-539) was > 100 µM (inactive) and the GI50 (SK-MEL-28) was > 100 µM (inactive). The GI50 (SK-MEL-5) was > 100 µM (inactive), the GI50 (SK-OV-3) was > 100 µM (inactive) and the GI50 (SN12C) was > 100 µM (inactive). The GI50 (SNB-19) was > 100 µM (inactive), the GI50 (SNB-75) was > 100 µM (inactive) and the GI50 (SR) was > 100 µM (inactive). The GI50 (SW-620) was > 100 µM (inactive), the GI50 (TK-10) was > 100 µM (inactive) and the GI50 (U-251) was > 100 µM (inactive). For the same molecule, the GI50 (UACC-257) was > 100 µM (inactive), the GI50 (UACC-62) was > 100 µM (inactive) and the GI50 (UO-31) was > 100 µM (inactive).
